Patent US20040038952A1, “Pharmaceutical compositions for treatment of digestive disorders and associated diseases” (priority 2000, published 2004)
“Also recorded” adds a separate entry of the source.

Columns and labels:
[1] = test system: patients affected by either non-ulcer dyspepsia, biliary dyskinesis or irritable bowel syndrome; test: Open clinical study in digestive disorders: subjective gastrointestinal symptoms, grade 0-3; type: in vivo, human; settings: total number of points/number of patients, 3 months, control group value in brackets
Experimental: (§1) In these studies 48 patients affected by either non-ulcer dyspepsia, biliary dyskinesis or irritable bowel syndrome were involved. 24 patients with unrestricted fat diet received only 150 mg of ursodeoxycholic acid (group A) and 24 patients only bioflavonoid (300 mg of quercetin) (group B) for 3 months. After one-month washout both groups received ursodeoxycholic acid+quercetin (Example 2) (group C) for another 3 months.
The gastrointestinal symptoms (postprandial early satiety, abdominal distention or bloating, nausea, vomitus, diarrhea, constipation) were evaluated by using the following grading system:
The treatments A, B and C shown in point 1 were used. In Table 2 the average complaint ratio related to one patient was given (average complaint ratio=total number of points/number of patients). The values of the control groups are given in brackets.

[2] = test system: patients affected by either non-ulcer dyspepsia, biliary dyskinesis or irritable bowel syndrome; test: Open clinical study in digestive disorders: overall (psychosomatic) condition; type: in vivo, human; settings: % of cases, 3 months, group A 150 mg ursodeoxycholic acid, group B 300 mg quercetin, group C Example 2; for Overall (psychosomatic) condition: Improved: unrestricted fat diet
Text: The patients treated with the composition of the invention during or at the end of the meals were able to digest any type of foods including heavy or spicy ones. […] The improvement of the symptoms of patients treated with the composition of Example 2 was higher than that of the bile acid or bioflavonoid treatment alone.
as §1
The overall (psychosomatic) condition and subjective symptoms were compared to the results of an age and sex matched control group.
The evaluation of the psychosomatic condition: improved, unchanged, worsened.

[3] = test system: female patients affected by digestive disorders, "dry eye" syndrome and premenstrual syndrome; test: Improvement of activity of fat-soluble substances: "dry eye" syndrome symptoms; type: in vivo, human
Experimental: (§2) 72 female patients affected by digestive disorders, “dry eye” syndrome and premenstrual syndrome were treated Intramuscularly administered vitamin A improved the symptoms of “dry eye” and premenstral syndrome, but it was ineffective by peroral administration.
The subjective symptoms were evaluated by questionairs by using the following grade:
“Dry eye” syndrome has the following symptoms: sensation of dryness, foreign body, tired eye, soreness, scatchiness, burning, reduced tearing of emotion, difficulties of opening the eye upon waking, episodes of excessive tearing, particular sensibility to wind, air conditioning, smoking, topical medication. Objective signs: particulate matter on the ocular surface, mucusthread at the inner canthus or in the lower fornix, deposits at the orefices of the meibomian glands, filamentary keratitis, hyperemia of the bulbar conjunctiva, papillary hypertrophy of the tarsal conjunctiva, thin tear meniscus, decreased brightness of the bulbar conjunctiva, frequent blinking, tear film abnormalities with fluorescein staining.
The patients were treated as follows:
(§3) Treatment A: 300.000 IU vitamin A in oil intramuscular administration ones per months,
(§4) Treatment B: 50.000 IU vitamin A acetate dragée peroral administration, once every second day,
(§5) Treatment C: 50.000 IU vitamin A acetate dragée peroral administration, once every second day+composition of the invention (Example 4).

[4] = test system: female patients affected by digestive disorders, "dry eye" syndrome and premenstrual syndrome; test: Treatment of premenstrual symptoms; type: in vivo, human
Experimental: as §2, §3, §4, §5
Symptoms of the premenstrual syndrome: food (sweets or chocolate) craving, exhaustion, irritability, fearfullness, anxiety or depression, hostility, feeling out of control, confusion, sleep disturbances, acne, fluid retention, weight gain, breast swelling, aches and pains, bloating, constipation or diarrhoea.
The number of patients, methods of treatment and the grade of evaluation were the same as shown in experiment 3.

[5] = test system: Dry eye model in Wistar rats by retrobulbar injection of capsaicin; test: Topical treatment of "dry eye": capsaicin dry eye model; type: in vivo; settings: one drop 3 times per day
Experimental: Dry eye model was created in 16 Wistar rats in one eye by retrobulbar injection of capsaicin as it was published in [Camras PCB, Bito L Z: The pathophysiological effects of nitrogen mustard on the rabbit eye. II. The inhibition of the initial hypersensitive phase by capsaicin and the apparent role of substance P. Invest Ophthaimol Vis Sci. 19, 423-8 (1980)], while the other eye (control) was not treated at all.
The following treatments were applied:
A treatment: 4 rats were treated with topical artificial tear drops, one drop 3 times per day;
B treatment: 4 rats were treated with the composition of Example 10, one drop 3 times per day,
C treatment: 4 rats were treated with the composition of Example 10, one drope 3 times per day+one drop of vitamin A 3 times per day (oil drop; 30 000 IU/ml),
D treatment: 4 rats were treated with vitamin A, one drop 3 times per day (oil drop 30 000 IU/ml).
The condition of eyes were registered as written in the literature and evaluated 4 weeks after treatment on the following scale:
1=punctiform ephitelial loss of the cornea;
2=large ephitelial loss of the cornea with mild corneal edema;
3=large ephitelial loss of the cornea with severe corneal edema.

[6] = peroral, 50.000 IU vitamin A acetate dragée once every second day (Treatment B alone, Treatment C + Example 4)
[7] = Treatment A: 300.000 IU vitamin A in oil, intramuscular, once per month

| Molecule | Diarrhoea/constipation, average complaint ratio [1] | Meteorism, average complaint ratio [1] | Nausea, average complaint ratio [1] | Satiety, average complaint ratio [1] | Vomitus, average complaint ratio [1] | Overall (psychosomatic) condition: Unchanged or worsened [2] [%] | Overall (psychosomatic) condition: Improved [2] [%] | other results |
| --- | --- | --- | --- | --- | --- | --- | --- | --- |
| O=c1c(O)c(-c2ccc(O)c(O)c2)oc2cc(O)cc(O)c12 [quercetin] | 0.63 (2.54) | 1.96 (2.33) | 0.92 (1.25) | 2.04 (2.86) | 0.46 (0.75) | 55 | 45 |  |
| C[C@H](CCC(=O)O)[C@H]1CC[C@H]2[C@@H]3[C@@H](O)C[C@@H]4C[C@H](O)CC[C@]4(C)[C@H]3CC[C@]12C [ursodeoxycholic acid] | 2.19 (2.54) | 2.12 (2.78) | 0.83 (1.17) | 2.06 (2.92) | 0.12 (0.83) | 33 | 67 |  |
| CC(=O)OC/C=C(C)/C=C/C=C(C)/C=C/C1=C(C)CCCC1(C)C [vitamin A acetate] |  |  |  |  |  |  |  | "Dry eye" symptoms: Improved [3, 6]: 12%; "Dry eye" symptoms: Unchanged [3, 6]: 88%; Premenstrual symptoms: Improved [4, 6]: 8%; Premenstrual symptoms: Unchanged [4, 6]: 92% |
| vitamin A |  |  |  |  |  |  |  | "Dry eye" symptoms: Improved [3, 7]: 80%; "Dry eye" symptoms: Unchanged [3, 7]: 20%; Symptoms of "dry eye", in words ([3]; intramuscular administration): improved; Symptoms of "dry eye", in words ([3]; peroral administration): ineffective; also recorded: improved only weakly; Premenstrual symptoms: Improved [4, 7]: 72%; Premenstrual symptoms: Unchanged [4, 7]: 28%; Symptoms of premenstrual syndrome, in words ([4]; intramuscular administration): improved; Symptoms of premenstrual syndrome, in words ([4]; peroral administration): ineffective; also recorded: hardly improve; Improvement of eye alteration (in words) ([5]; compared to artificial tear drops): not significant; Reduced eye alteration compared to treatment with artificial tear drop (treatment A) ([5]; evaluated 4 weeks after treatment on scale 0-3, vitamin A oil drop 30 000 IU/ml): <5% |
